{
  "source": "paper PMC9898036",
  "about": "“VIP152 is a selective CDK9 inhibitor with pre-clinical in vitro and in vivo efficacy in chronic lymphocytic leukemia” (Leukemia, 2022)",
  "key": {"CDK11": {"biological_target": "CDK11 (Homo sapiens, UniProt Q9BWU1)", "test": "KINOMEscan: CDK11", "assay_type": "binding", "conditions": "1000 nM, read-out: Percent Control"}, "DMPK2": {"biological_target": "DMPK2 (Homo sapiens, UniProt Q6DT37)", "sequence (Q6DT37 whole entry)": "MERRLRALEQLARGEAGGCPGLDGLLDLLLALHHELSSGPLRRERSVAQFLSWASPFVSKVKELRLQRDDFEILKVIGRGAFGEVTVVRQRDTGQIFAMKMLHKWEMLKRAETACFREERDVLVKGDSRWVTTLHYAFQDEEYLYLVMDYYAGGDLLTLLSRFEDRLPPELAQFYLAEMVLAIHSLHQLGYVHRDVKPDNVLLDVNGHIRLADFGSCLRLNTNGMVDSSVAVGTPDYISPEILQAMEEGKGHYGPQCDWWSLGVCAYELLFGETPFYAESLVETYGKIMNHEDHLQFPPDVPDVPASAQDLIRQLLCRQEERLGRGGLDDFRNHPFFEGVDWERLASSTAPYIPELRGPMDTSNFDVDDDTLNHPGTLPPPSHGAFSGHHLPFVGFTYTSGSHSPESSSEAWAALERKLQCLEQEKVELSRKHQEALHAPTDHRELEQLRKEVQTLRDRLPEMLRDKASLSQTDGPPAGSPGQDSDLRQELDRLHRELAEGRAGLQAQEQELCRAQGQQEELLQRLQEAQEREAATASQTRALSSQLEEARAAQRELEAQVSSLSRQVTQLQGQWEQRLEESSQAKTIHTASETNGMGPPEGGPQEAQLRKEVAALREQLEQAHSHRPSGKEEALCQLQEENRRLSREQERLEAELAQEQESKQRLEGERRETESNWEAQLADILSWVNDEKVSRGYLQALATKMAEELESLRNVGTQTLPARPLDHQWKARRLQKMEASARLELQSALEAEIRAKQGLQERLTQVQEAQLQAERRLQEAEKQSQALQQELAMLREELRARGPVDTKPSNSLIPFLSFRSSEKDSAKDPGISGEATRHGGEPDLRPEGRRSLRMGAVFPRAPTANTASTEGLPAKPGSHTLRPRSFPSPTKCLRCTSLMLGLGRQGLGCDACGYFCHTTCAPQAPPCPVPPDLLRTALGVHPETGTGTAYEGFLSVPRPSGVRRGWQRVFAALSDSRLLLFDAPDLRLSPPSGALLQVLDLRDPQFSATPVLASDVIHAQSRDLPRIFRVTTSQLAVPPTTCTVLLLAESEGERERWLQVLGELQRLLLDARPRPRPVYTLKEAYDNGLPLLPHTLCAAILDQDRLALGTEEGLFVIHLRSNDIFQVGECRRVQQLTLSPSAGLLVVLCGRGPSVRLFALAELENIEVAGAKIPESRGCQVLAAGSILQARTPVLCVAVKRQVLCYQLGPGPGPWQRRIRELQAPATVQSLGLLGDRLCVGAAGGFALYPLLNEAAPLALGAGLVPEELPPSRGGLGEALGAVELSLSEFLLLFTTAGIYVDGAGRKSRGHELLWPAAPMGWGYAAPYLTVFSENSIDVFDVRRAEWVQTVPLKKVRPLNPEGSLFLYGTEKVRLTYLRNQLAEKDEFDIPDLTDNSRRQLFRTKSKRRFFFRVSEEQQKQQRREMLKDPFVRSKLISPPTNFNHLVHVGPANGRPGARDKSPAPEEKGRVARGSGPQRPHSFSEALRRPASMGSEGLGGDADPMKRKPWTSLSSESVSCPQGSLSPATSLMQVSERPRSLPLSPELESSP", "test": "KINOMEscan: DMPK2", "assay_type": "binding", "conditions": "1000 nM, read-out: Percent Control"}, "CTK": {"biological_target": "CTK (Homo sapiens, UniProt P42679)", "test": "KINOMEscan: CTK", "assay_type": "binding", "conditions": "1000 nM, read-out: Percent Control"}, "MAST1": {"biological_target": "MAST1 (Homo sapiens, UniProt Q9Y2H9)", "test": "KINOMEscan: MAST1", "assay_type": "binding", "conditions": "1000 nM, read-out: Percent Control"}, "EGFR(G719S)": {"biological_target": "EGFR(G719S) (Homo sapiens, UniProt P00533, G719S)", "test": "KINOMEscan: EGFR(G719S)", "assay_type": "binding", "conditions": "1000 nM, read-out: Percent Control"}, "BTK": {"biological_target": "BTK (Homo sapiens, UniProt Q06187)", "test": "KINOMEscan: BTK", "assay_type": "binding", "conditions": "1000 nM, read-out: Percent Control"}, "DRAK2": {"biological_target": "DRAK2 (Homo sapiens, UniProt O94768)", "test": "KINOMEscan: DRAK2", "assay_type": "binding", "conditions": "1000 nM, read-out: Percent Control"}, "EGFR(G719C)": {"biological_target": "EGFR(G719C) (Homo sapiens, UniProt P00533, G719C)", "test": "KINOMEscan: EGFR(G719C)", "assay_type": "binding", "conditions": "1000 nM, read-out: Percent Control"}, "LIMK2": {"biological_target": "LIMK2 (Homo sapiens, UniProt P53671)", "test": "KINOMEscan: LIMK2", "assay_type": "binding", "conditions": "1000 nM, read-out: Percent Control"}, "Dopamine D2S": {"biological_target": "Dopamine D2S (Homo sapiens, UniProt P14416)", "test": "Eurofins Diversity Panel", "assay_type": "binding", "conditions": "hum, Conc. 10 μM"}, "MARK3": {"biological_target": "MARK3 (Homo sapiens, UniProt P27448)", "test": "KINOMEscan: MARK3", "assay_type": "binding", "conditions": "1000 nM, read-out: Percent Control"}, "WNK1": {"biological_target": "WNK1 (Homo sapiens, UniProt Q9H4A3)", "test": "KINOMEscan: WNK1", "assay_type": "binding", "conditions": "100 nM, read-out: Percent Control"}, "Muscarinic M2": {"biological_target": "Muscarinic M2 (Homo sapiens, UniProt P08172)", "test": "Eurofins Diversity Panel", "assay_type": "binding", "conditions": "hum, Conc. 10 μM"}, "GSK3β [1]": {"biological_target": "T1, GSK3β (Homo sapiens, UniProt P49841)", "T1 sequence (P49841 whole entry)": "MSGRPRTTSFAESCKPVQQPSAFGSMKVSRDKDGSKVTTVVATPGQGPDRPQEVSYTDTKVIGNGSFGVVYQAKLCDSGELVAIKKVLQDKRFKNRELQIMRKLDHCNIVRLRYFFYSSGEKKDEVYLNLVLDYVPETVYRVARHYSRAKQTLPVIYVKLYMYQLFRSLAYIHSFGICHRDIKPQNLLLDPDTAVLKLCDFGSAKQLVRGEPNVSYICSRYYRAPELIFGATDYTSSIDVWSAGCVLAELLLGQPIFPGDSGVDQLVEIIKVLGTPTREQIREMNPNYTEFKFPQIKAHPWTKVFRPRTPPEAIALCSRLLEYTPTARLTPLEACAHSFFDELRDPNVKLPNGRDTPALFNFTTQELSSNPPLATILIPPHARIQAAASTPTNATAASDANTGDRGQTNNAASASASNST", "test": "NanoBRET target engagement assay (HEK293)", "assay_type": "cell-based"}, "LATS2": {"biological_target": "LATS2 (Homo sapiens, UniProt Q9NRM7)", "test": "KINOMEscan: LATS2", "assay_type": "binding", "conditions": "1000 nM, read-out: Percent Control"}, "MUSK": {"biological_target": "MUSK (Homo sapiens, UniProt O15146)", "test": "KINOMEscan: MUSK", "assay_type": "binding", "conditions": "1000 nM, read-out: Percent Control"}, "CDC2L5": {"biological_target": "CDC2L5 (Homo sapiens, UniProt Q14004)", "test": "KINOMEscan: CDC2L5", "assay_type": "binding", "conditions": "1000 nM, read-out: Percent Control"}, "MINK": {"biological_target": "MINK (Homo sapiens, UniProt Q8N4C8)", "test": "KINOMEscan: MINK", "assay_type": "binding", "conditions": "1000 nM, read-out: Percent Control"}, "CAMK2B": {"biological_target": "CAMK2B (Homo sapiens, UniProt Q13554)", "test": "KINOMEscan: CAMK2B", "assay_type": "binding", "conditions": "1000 nM, read-out: Percent Control"}, "CDK8": {"biological_target": "CDK8 (Homo sapiens, UniProt P49336)", "test": "KINOMEscan: CDK8", "assay_type": "binding", "conditions": "1000 nM, read-out: Percent Control"}, "ITK": {"biological_target": "ITK (Homo sapiens, UniProt Q08881)", "test": "KINOMEscan: ITK", "assay_type": "binding", "conditions": "1000 nM, read-out: Percent Control"}, "CAMKK1": {"biological_target": "CAMKK1 (Homo sapiens, UniProt Q8N5S9)", "test": "KINOMEscan: CAMKK1", "assay_type": "binding", "conditions": "1000 nM, read-out: Percent Control"}, "EPHA6": {"biological_target": "EPHA6 (Homo sapiens, UniProt Q9UF33)", "test": "KINOMEscan: EPHA6", "assay_type": "binding", "conditions": "1000 nM, read-out: Percent Control"}, "GSK3β [2]": {"biological_target": "T1, GSK3β", "test": "HotSpot radiometric kinase assay", "assay_type": "biochemical", "parameters": "purchased ReactionBio", "conditions": "10-dose series from 0.5 nM to 10 µM; vs dinaciclib, KB-0742, atuveciclib", "description": "(§1) We next compared VIP152 to other CDK inhibitors currently in development. […] The compounds were tested in a 10-dose series from 0.5 nM to 10 µM against CDK9 in complex with Cyclin T1/T2/K, CDK7/Cyclin H, and GSK3α/β. […]\n(§2) HotSpot Kinase Assay Protocol\n(§3) Compounds tested via HotSpot Kinase Assay were sent to ReactionBio for the experiment. The […]\n(§4) Kinase substrate was added to reaction buffer (20 mM Hepes (pH 7.5), 10 mM MgCl2, 1 mM EGTA, 0.01% Brij35, 0.02 mg/ml BSA, 0.1 mM Na3VO4, 2 mM DTT, 1% DMSO). Cofactors and kinases were gently added to the reaction buffer. Compounds to be tested were dissolved in 100% DMSO and were delivered into the kinase reaction mixture by Acoustic technology (Echo550; nanoliter range) and incubated for 20 min at room temperature. 32P-ATP was delivered into the reaction mixture and the reaction was allowed to proceed for 2 hours. Kinase activity was detected by P81 filter-binding method."}, "[3]": {"biological_target": "CDK9 in complex with Cyclin T1 (Homo sapiens, UniProt P50750)", "sequence (P50750 whole entry)": "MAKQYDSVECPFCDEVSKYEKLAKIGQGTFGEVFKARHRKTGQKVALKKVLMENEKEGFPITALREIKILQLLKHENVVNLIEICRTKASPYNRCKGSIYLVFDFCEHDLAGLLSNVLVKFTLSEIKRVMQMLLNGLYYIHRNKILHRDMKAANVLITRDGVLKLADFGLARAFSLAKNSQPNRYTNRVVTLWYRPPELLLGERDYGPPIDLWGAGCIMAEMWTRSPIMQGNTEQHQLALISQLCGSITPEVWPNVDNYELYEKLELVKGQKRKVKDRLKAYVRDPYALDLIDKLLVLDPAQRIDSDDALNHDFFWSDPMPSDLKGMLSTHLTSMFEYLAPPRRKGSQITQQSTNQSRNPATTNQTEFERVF", "sequence (O60563 whole entry partner)": "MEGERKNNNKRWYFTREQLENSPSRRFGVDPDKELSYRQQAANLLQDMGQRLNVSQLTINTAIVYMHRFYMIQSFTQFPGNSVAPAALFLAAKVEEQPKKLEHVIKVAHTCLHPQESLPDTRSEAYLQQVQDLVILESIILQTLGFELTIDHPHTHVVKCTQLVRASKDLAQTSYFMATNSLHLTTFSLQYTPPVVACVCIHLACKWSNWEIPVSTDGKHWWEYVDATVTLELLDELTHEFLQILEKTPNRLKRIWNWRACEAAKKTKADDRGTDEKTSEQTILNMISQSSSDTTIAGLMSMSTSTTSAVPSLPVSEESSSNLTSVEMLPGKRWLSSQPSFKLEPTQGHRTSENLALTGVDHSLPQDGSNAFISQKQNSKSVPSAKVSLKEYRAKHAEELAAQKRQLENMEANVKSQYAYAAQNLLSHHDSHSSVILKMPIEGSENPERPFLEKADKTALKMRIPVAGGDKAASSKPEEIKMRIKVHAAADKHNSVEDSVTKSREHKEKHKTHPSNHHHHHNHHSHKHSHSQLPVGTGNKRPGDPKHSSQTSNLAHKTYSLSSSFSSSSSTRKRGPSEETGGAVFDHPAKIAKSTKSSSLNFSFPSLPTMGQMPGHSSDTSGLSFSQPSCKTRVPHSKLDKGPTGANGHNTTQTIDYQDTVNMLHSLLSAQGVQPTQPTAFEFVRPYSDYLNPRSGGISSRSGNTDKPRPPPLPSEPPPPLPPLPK", "test": "HotSpot radiometric kinase assay", "assay_type": "biochemical", "parameters": "purchased ReactionBio", "description": "as §1, §2, §3, §4"}, "[4]": {"biological_target": "CDK9 in complex with Cyclin T2 (Homo sapiens, UniProt P50750)", "test": "HotSpot radiometric kinase assay", "assay_type": "biochemical", "parameters": "purchased ReactionBio", "conditions": "10-dose series from 0.5 nM to 10 µM; vs dinaciclib, KB-0742, atuveciclib", "description": "as §1, §2, §3, §4"}, "GRK4": {"biological_target": "GRK4 (Homo sapiens, UniProt P32298)", "test": "KINOMEscan: GRK4", "assay_type": "binding", "conditions": "1000 nM, read-out: Percent Control"}, "ADCK3": {"biological_target": "ADCK3 (Homo sapiens, UniProt Q8NI60)", "test": "KINOMEscan: ADCK3", "assay_type": "binding", "conditions": "1000 nM, read-out: Percent Control"}, "TNK1": {"biological_target": "TNK1 (Homo sapiens, UniProt Q13470)", "test": "KINOMEscan: TNK1", "assay_type": "binding", "conditions": "100 nM, read-out: Percent Control"}, "CDKL3": {"biological_target": "CDKL3 (Homo sapiens, UniProt Q8IVW4)", "test": "KINOMEscan: CDKL3", "assay_type": "binding", "conditions": "1000 nM, read-out: Percent Control"}, "KIT(A829P)": {"biological_target": "KIT(A829P) (Homo sapiens, UniProt P10721, A829P)", "test": "KINOMEscan: KIT(A829P)", "assay_type": "binding", "conditions": "1000 nM, read-out: Percent Control"}, "CDC2L1": {"biological_target": "CDC2L1 (Homo sapiens, UniProt P21127)", "sequence (P21127 whole entry)": "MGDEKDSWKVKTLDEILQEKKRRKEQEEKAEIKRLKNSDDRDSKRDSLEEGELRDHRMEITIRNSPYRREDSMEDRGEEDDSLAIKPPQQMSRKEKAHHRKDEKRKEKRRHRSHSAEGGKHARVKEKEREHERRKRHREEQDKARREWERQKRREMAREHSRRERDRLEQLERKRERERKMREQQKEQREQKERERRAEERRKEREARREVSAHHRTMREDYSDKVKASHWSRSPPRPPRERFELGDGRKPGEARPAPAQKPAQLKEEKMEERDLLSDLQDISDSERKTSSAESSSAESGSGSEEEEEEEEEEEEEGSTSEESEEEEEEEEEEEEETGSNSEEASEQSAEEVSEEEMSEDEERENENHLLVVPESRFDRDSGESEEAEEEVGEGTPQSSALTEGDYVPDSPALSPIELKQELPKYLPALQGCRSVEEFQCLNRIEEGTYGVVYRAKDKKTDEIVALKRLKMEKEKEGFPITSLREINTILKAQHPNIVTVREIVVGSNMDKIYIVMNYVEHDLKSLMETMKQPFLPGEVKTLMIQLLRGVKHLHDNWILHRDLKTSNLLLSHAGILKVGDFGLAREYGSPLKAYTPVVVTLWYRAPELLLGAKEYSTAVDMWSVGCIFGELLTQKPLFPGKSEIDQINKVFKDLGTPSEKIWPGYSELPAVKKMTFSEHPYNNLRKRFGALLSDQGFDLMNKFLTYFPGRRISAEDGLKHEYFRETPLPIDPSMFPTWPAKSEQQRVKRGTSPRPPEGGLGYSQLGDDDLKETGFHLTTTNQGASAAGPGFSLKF", "test": "KINOMEscan: CDC2L1", "assay_type": "binding", "conditions": "1000 nM, read-out: Percent Control"}, "CAMK2G": {"biological_target": "CAMK2G (Homo sapiens, UniProt Q13555)", "sequence (Q13555 whole entry)": "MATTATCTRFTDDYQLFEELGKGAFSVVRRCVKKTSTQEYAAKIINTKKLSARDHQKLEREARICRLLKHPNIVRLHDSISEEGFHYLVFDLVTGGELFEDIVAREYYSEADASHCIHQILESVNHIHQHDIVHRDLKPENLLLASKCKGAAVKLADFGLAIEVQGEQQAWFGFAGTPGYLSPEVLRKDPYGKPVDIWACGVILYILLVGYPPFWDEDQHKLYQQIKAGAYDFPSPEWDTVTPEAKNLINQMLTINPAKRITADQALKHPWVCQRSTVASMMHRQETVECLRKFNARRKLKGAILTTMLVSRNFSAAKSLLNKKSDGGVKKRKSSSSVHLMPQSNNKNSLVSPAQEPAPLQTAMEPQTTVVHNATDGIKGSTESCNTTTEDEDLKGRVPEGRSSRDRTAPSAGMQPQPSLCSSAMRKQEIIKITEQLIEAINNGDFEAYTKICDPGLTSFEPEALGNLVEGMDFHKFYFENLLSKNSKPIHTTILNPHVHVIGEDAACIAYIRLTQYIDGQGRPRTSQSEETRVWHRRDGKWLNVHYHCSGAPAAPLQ", "test": "KINOMEscan: CAMK2G", "assay_type": "binding", "conditions": "1000 nM, read-out: Percent Control"}, "SGK3": {"biological_target": "SGK3 (Homo sapiens, UniProt Q96BR1)", "test": "KINOMEscan: SGK3", "assay_type": "binding", "conditions": "100 nM, read-out: Percent Control"}, "Adenosine A3": {"biological_target": "Adenosine A3 (Homo sapiens, UniProt P0DMS8)", "sequence (P0DMS8 whole entry)": "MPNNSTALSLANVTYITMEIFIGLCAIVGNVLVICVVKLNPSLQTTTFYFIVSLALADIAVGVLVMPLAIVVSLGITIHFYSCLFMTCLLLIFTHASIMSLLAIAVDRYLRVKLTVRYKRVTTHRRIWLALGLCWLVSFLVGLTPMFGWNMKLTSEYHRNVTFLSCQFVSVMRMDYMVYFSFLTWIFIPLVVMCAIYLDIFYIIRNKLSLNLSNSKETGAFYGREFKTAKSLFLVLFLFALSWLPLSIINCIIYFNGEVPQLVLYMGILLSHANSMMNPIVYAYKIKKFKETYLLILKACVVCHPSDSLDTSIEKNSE", "test": "Eurofins Diversity Panel", "assay_type": "binding", "conditions": "hum, Conc. 10 μM"}},
  "data": [
    {"smiles": "COc1cc(F)ccc1-c1cc(Nc2cc(CS(C)(=N)=O)ccn2)ncc1F", "note": "(stereo not drawn) [VIP152]", "values": [
      {"measurement": "remaining binding at 1 µM", "setting": "CDK11", "value": 100, "unit": "%"},
      {"measurement": "remaining binding at 1 µM", "setting": "DMPK2", "value": 88, "unit": "%"},
      {"measurement": "remaining binding at 1 µM", "setting": "CTK", "value": 84, "unit": "%"},
      {"measurement": "remaining binding at 1 µM", "setting": "MAST1", "value": 81, "unit": "%"},
      {"measurement": "remaining binding at 1 µM", "setting": "EGFR(G719S)", "value": 86, "unit": "%"},
      {"measurement": "remaining binding at 1 µM", "setting": "BTK", "value": 100, "unit": "%"},
      {"measurement": "remaining binding at 1 µM", "setting": "DRAK2", "value": 100, "unit": "%"},
      {"measurement": "remaining binding at 1 µM", "setting": "EGFR(G719C)", "value": 97, "unit": "%"},
      {"measurement": "remaining binding at 1 µM", "setting": "LIMK2", "value": 91, "unit": "%"},
      {"measurement": "inhibition at 10 µM", "setting": "Dopamine D2S", "value": 15, "unit": "%"},
      {"measurement": "remaining binding at 1 µM", "setting": "MARK3", "value": 100, "unit": "%"},
      {"measurement": "remaining binding at 0.1 µM", "setting": "WNK1", "value": 100, "unit": "%"},
      {"measurement": "inhibition at 10 µM", "setting": "Muscarinic M2", "value": -5, "unit": "%"},
      {"measurement": "inhibitory capacity against GSK3β", "setting": "GSK3β [1]", "value": "Inhibits"},
      {"measurement": "remaining binding at 1 µM", "setting": "LATS2", "value": 97, "unit": "%"},
      {"measurement": "remaining binding at 1 µM", "setting": "MUSK", "value": 58, "unit": "%"},
      {"measurement": "remaining binding at 1 µM", "setting": "CDC2L5", "value": 13, "unit": "%"},
      {"measurement": "remaining binding at 1 µM", "setting": "MINK", "value": 29, "unit": "%"},
      {"measurement": "remaining binding at 1 µM", "setting": "CAMK2B", "value": 65, "unit": "%"},
      {"measurement": "remaining binding at 1 µM", "setting": "CDK8", "value": 93, "unit": "%"},
      {"measurement": "remaining binding at 1 µM", "setting": "ITK", "value": 100, "unit": "%"},
      {"measurement": "remaining binding at 1 µM", "setting": "CAMKK1", "value": 13, "unit": "%"},
      {"measurement": "remaining binding at 1 µM", "setting": "EPHA6", "value": 90, "unit": "%"},
      {"measurement": "potency versus the other inhibitors tested", "setting": "GSK3β [2]", "value": "higher potency"},
      {"measurement": "potency versus the other inhibitors tested", "setting": "[3]; 10-dose series from 0.5 nM to 10 µM, vs dinaciclib, KB-0742, atuveciclib", "value": "higher potency"},
      {"measurement": "increase in potency compared with other inhibitors currently in development", "setting": "[3]; CDK9", "value": "> 10", "unit": "fold"},
      {"measurement": "potency versus the other inhibitors tested", "setting": "[4]", "value": "higher potency"},
      {"measurement": "remaining binding at 1 µM", "setting": "GRK4", "value": 26, "unit": "%"},
      {"measurement": "remaining binding at 1 µM", "setting": "ADCK3", "value": 97, "unit": "%"},
      {"measurement": "remaining binding at 0.1 µM", "setting": "TNK1", "value": 100, "unit": "%"},
      {"measurement": "remaining binding at 1 µM", "setting": "CDKL3", "value": 53, "unit": "%"},
      {"measurement": "remaining binding at 1 µM", "setting": "KIT(A829P)", "value": 100, "unit": "%"},
      {"measurement": "remaining binding at 1 µM", "setting": "CDC2L1", "value": 96, "unit": "%"},
      {"measurement": "remaining binding at 1 µM", "setting": "CAMK2G", "value": 78, "unit": "%"},
      {"measurement": "remaining binding at 0.1 µM", "setting": "SGK3", "value": 100, "unit": "%"},
      {"measurement": "inhibition at 10 µM", "setting": "Adenosine A3", "value": 43, "unit": "%"}
    ]}
  ]
}
